These results are taken from article PMC3332521 (Scientific Reports, 2012).

One series deals with T1, Nfo (Pseudomonas putida, UniProt F8G0M2).
T1 sequence (F8G0M2 1-255): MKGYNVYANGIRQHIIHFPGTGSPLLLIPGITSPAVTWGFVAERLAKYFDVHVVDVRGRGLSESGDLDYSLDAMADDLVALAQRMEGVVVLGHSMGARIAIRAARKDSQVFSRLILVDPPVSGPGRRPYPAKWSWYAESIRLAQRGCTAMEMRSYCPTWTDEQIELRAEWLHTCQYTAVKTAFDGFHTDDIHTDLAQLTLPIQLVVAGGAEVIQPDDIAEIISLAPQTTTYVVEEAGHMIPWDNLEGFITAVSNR
Briefly: coupled formate dehydrogenase assay, NADH at […] nm. It counts as biochemical. The conditions noted are these: 50 mM Tris-HCl pH 8.0, 20°C, NAD.

Another series addresses T2, Ami (Pseudomonas putida, UniProt F8G0M0).
T2 sequence (F8G0M0 1-208): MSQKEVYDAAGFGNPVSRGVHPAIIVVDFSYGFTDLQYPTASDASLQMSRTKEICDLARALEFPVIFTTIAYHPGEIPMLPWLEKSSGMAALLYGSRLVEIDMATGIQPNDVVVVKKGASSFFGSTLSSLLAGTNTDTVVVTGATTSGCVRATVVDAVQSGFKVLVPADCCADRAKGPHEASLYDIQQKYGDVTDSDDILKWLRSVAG
The series can be described thus: coupled glutamate dehydrogenase assay, NADPH at […] nm. Format: biochemical. The conditions noted are these: 50 mM Tris-HCl, 1 mM EDTA, 20°C, alpha-ketoglutarate.

The next series has as its target T3, Iso (Pseudomonas putida, UniProt F8G0M3).
T3 sequence (F8G0M3 1-252): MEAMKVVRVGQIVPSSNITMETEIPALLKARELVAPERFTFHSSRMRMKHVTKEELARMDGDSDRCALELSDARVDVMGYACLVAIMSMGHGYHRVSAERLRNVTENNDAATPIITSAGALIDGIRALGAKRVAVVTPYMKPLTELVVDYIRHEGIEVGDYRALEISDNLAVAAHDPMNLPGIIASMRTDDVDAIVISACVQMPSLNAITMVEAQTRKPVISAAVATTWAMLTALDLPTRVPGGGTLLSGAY
The series can be described thus: spectrophotometric, maleate consumption at […] nm. Format: biochemical. Conditions: read-out: apparent Km; 50 mM Tris-HCl pH 8.4, 30°C, 1-thioglycerol.

Substrate in the series “purified protein”: Oc1ccc(O)nc1
Briefly: purified protein. Format: biochemical, Pseudomonas putida. The conditions noted are these: 0.025 mM Fe2+, 18.2 mM Tris-HCl pH 8.0, 20°C.

Consider `O=CNC(=O)/C=C\C(=O)O` [NFM], for which the “coupled formate dehydrogenase assay, NADH at 340 nm” value at Nfo is reported as “Nfo activity was measured through its production of formate by a coupled reaction”.

On to `NC(=O)/C=C\C(=O)O` [maleamic acid], for which the “coupled glutamate dehydrogenase assay, NADPH at 340 nm” value on Ami is on record as “Purified Ami (Fig. 3A) transformed maleamic acid to maleic acid”.

With `O=C(O)/C=C\C(=O)O` [maleate], the Km (usually the substrate concentration at which the rate is half of its maximum) on Iso stood at 689 µM.

B1: Hpo (Pseudomonas putida S16) (protein)
chain: MDHVSFTEICLRQLKMSGVHEGERLIVLTQGHERLAYADAFMAAGQRLGAEMYHMRLPSPLPSNGWAVGVTGLADLPGAVEALKNCDMLIDCVFLLFSAEQFEIQAAGTRILTAVEPPELLARMLPFPELREKVSIAAELVENAKDMRITSPHGTDITYKLNTYPTIAEYACTDTPGRWDHWPSGFVFTGGDDDGVDGTIVVAPGDVLLPQNLMVREPITYTIEKGWIVDIRGGLEAQIVNSYMDSFNDPRGKGMSHVGWGMNPHAKWHNFVPGQFTGGMGMELRSFYGNVMFSTGPNNELGGSNDTACHLDIPMRNCSLFLDDTPVVIDGDIVVKEIQLVQR
B1: in “purified protein”, the Km was determined as 0.168 µM.
